In EP1247803A2, “Indolinone compounds suitable for modulation of protein kinases” (Sugen, Inc., priority 1996, dated 1998):

What was measured:
MET = MET biochemical kinase assay; set-up: species or system human; concentration or dose not given beside the values
Method in brief: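 Plates coated with anti-rabbit Fc bind a rabbit anti-MET antibody that captures receptor from cell lysates; unbound protein is washed off before compound and ATP-containing kinase buffer go in.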

EGFR = biological target: T1, EGFR (Homo sapiens, UniProt P00533); test: EGFR ELISA assay (in vitro kinase activity, EGFR captured from A431 cell lysate); format: biochemical; set-up: concentration or dose not given beside the values
T1 construct: Add 7 ug A431 cell lysate per well (EGFR source); endogenous in cells; host or cells: A431
Method in brief: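 EGFR from A431 lysate was captured on anti-EGFR antibody-coated plates and preincubated with compounds for 30 min. Autophosphorylation ran 5 min with 3 uM ATP and 5 mM MnCl2 (final), stopped with 20 mM EDTA. Phosphotyrosine was detected by anti-pTyr ELISA with ABTS/H2O2, read at 410 nm.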

T1 sequence (P00533 25-1210): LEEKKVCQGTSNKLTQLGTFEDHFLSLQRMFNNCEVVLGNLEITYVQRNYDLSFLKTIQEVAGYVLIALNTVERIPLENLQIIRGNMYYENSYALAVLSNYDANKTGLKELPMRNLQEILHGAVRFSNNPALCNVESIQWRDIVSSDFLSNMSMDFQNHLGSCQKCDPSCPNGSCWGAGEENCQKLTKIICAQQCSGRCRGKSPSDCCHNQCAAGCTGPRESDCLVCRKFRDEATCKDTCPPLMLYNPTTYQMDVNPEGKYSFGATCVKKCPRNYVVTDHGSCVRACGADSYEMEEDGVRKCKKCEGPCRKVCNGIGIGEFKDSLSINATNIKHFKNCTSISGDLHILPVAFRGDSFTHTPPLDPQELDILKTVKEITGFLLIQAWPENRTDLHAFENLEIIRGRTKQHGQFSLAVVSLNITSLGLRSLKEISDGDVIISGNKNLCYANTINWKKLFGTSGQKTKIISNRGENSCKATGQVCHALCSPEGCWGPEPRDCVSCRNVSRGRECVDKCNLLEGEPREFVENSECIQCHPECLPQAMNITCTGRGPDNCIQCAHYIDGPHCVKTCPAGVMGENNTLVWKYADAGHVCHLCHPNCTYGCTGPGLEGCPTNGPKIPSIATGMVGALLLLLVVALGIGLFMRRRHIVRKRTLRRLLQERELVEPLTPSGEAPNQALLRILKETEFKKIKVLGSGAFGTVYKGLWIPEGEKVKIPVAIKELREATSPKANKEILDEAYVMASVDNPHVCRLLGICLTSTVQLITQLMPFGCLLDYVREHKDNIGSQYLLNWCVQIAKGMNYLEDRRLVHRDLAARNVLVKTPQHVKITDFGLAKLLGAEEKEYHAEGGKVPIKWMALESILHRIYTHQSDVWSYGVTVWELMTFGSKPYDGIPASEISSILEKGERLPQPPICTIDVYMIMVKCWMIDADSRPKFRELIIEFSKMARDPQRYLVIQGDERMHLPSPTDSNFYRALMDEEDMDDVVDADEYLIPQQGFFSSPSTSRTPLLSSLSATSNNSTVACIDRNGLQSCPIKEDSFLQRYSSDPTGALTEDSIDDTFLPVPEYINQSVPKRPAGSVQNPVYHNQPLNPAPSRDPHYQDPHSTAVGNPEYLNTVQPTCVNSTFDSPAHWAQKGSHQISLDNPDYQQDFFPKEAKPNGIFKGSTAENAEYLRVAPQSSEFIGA

| SMILES | Met Kinase % Inhibition (MET) [%] | Biochem EGFR %Inhibition (EGFR) [%] |
| --- | --- | --- |
| O=C1Nc2ccc(S(=O)(=O)N3CCOCC3)cc2C1=Cc1ccc(Cl)c([N+](=O)[O-])c1 [10718/F08] | 28.4 | -8.7 |
| CCOc1cccc(C=C2C(=O)Nc3ccc(S(=O)(=O)N4CCOCC4)cc32)c1O [10734/F02] | 55.0 | 0.7 |
| O=C1Nc2ccc(S(=O)(=O)N3CCOCC3)cc2C1=Cc1cc(Br)cc(Br)c1O [10734/F07] | 95.7 | 33.7 |
| CCc1c(C)[nH]c(C=C2C(=O)Nc3ccc(Br)c(C)c32)c1C [10719/C05] | 35.5 | 27.4 |
| CCOC(=O)CCc1c(C(=O)OCC)[nH]c(C=C2C(=O)Nc3ccc(S(=O)(=O)N4CCOCC4)cc32)c1CC(=O)OCC [10718/F05] | 53.7 | -4.9 |
| CCOc1cccc(C=C2C(=O)Nc3ccc(CCCl)cc32)c1O [10734/G02] | 63.6 | 3.4 |
| O=C1Nc2c(Br)cc(Br)cc2C1=Cc1ccc(F)cc1Cl [10719/A09] | 47.0 | 2.2 |
| O=C1Nc2ccc(S(=O)(=O)N3CCOCC3)cc2C1=Cc1ccc(O)c(Br)c1 [10734/F09] | 93.9 | 3.1 |
| CCOC(=O)c1cc(C=C2C(=O)Nc3ccc(S(=O)(=O)N4CCOCC4)cc32)oc1C [10718/F06] | 42.5 | -9.1 |
| O=C1Nc2ccc(CCCl)cc2C1=Cc1ccc([N+](=O)[O-])o1 [10718/G11] | 3.0 | -4.9 |
| CCN(CC)c1ccc(C=C2C(=O)Nc3ccc(S(=O)(=O)Nc4ccc(C(F)(F)F)cc4)cc32)c(O)c1 [10734/E05] | 63.6 | 7.9 |
| O=C1Nc2ccc(CCCl)cc2C1=Cc1cccc(F)c1O [10734/G08] | 82.2 | 33.7 |
| O=C1Nc2ccc(S(=O)(=O)N3CCOCC3)cc2C1=Cc1ccc2ccccc2c1O [10718/F04] | 78.1 | 1.2 |
| CCN(CC)c1ccc(C=C2C(=O)Nc3ccc(CCCl)cc32)c(O)c1 [10734/G05] | 57.7 | -0.3 |
| CCc1c(C)[nH]c(C=C2C(=O)Nc3c(Br)cc(Br)cc32)c1C [10719/A05] | 39.6 | 23.1 |
| CCN(CC)c1ccc(C=C2C(=O)Nc3ccc(S(=O)(=O)N4CCOCC4)cc32)c(O)c1 [10734/F05] | 73.8 | -15.6 |
| O=C1Nc2ccc(CCCl)cc2C1=Cc1cc(Br)cc(Br)c1O [10734/G07] | 96.6 | 51.1 |
| O=C1Nc2c(Br)cc(Br)cc2C1=Cc1ccc(O)c(O)c1 [10719/A03] | 84.1 | 67.7 |
| O=C1Nc2ccc(S(=O)(=O)Nc3ccc(C(F)(F)F)cc3)cc2C1=Cc1ccc(Br)s1 [10734/E11] | 67.1 | -8.0 |
| O=C1Nc2ccc(CCCl)cc2C1=Cc1ccc(Br)s1 [10734/G11] | 20.2 | 4.1 |
| COc1cc(OC)c(C=C2C(=O)Nc3ccc(Br)c(C)c32)c(OC)c1 [10719/C06] | 18.4 | -14.3 |
| O=C1Nc2ccc(CCCl)cc2C1=Cc1cc(Cl)ccc1O [10734/G04] | 72.1 | 62.9 |
| O=C1Nc2ccc(I)cc2C1=Cc1c[nH]c2ccccc12 [10717/B06] | 89.5 | -30.8 |
| CCOc1ccccc1C=C1C(=O)Nc2ccc(I)cc21 [10717/B02] | 87.5 | 31.7 |
| COc1ccc(C=C2C(=O)Nc3ccc(I)cc32)c(OC)c1 [10719/B04] | 38.4 | 29.9 |
